Test results from US11529350B2, “Tyrosine kinase non-receptor 1 (TNK1) inhibitors and uses thereof” (Sumitomo Pharma Oncology, Inc., priority 2019, dated 2022).

Columns and labels:
[1] = tested on: K562 cells; assay: In-vitro cell viability assay (CellTiter-Glo), K562; format: cell-based; settings: Homo sapiens
Experimental: (§1) Tnk1 is known to drive proliferation and survival of Hodgkin's lymphoma (HL) cells, such as K652 and L540 cell lines (Gu et al., Identification of activated Tnk1 kinase in Hodgkin's lymphoma, Leukemia 24: 861-65 ((2010)). Downregulation of Tnk1 inhibits cell growth and proliferation, and increases apoptosis. To study the individual test compounds in the context of HL cells, CellTiter-Glo® assays (Promega, Madison, Wis.) were performed according to the manufacturer's instructions. The CellTiter-Glo® assay system uses a thermostable luciferase to generate a stable “glow-type” luminescent signal while simultaneously inhibiting endogenous enzymes released during cell lysis (e.g., ATPases). As such, the assay provides a sensitive and stable luminescent output.
(§2) Reagent Preparation • 1. The CellTiter-Glo® Buffer was thawed and equilibrated to room temperature prior to use. • 2. The lyophilized CellTiter-Glo® Substrate was equilibrated to room temperature prior to use. • 3. An appropriate volume of CellTiter-Glo® Buffer was transferred into the amber bottle containing CellTiter-Glo® Substrate according the manufacturer's recommendation. The reconstituted lyophilized enzyme/substrate mixture formed the CellTiter-Glo® Reagent. • 4. The CellTiter-Glo® Reagent was mixed by gently vortexing, swirling or inverting the contents to obtain a homogeneous solution.
(§3) Protocol for the Cell Viability Assay • 1. A titration of the K652 or L540 cells was performed to determine the optimal number and ensure that the CellTiter-Glo® Assay was performed within the linear range. • 2. Opaque-walled multiwell plates (compatible with the luminometer) were prepared with K652 or L540 cells in culture medium, 100 μl per well for 96-well plates or 25 μl per well for 384-well plates. • 3. Control wells containing medium without cells were prepared to obtain a value for background luminescence. • 4. Test compound was added to experimental wells, and incubated according to culture protocol. • 5. The plate and its contents were equilibrated at room temperature for approximately 30 minutes.
(§4) Protocol for Generating an ATP Standard Curve • 1. 1 μM ATP was prepared in culture medium (100 μl of 1 μM ATP solution contains 10^−10 moles ATP). • 2. Serial tenfold dilutions of ATP in culture medium (1 μM to 10 nM; 100 μl contains 10^−10 to 10^−12 moles of ATP) were performed. • 3. A multiwell plate with varying concentrations of ATP standard in 100 μl medium (25 μl for a 384-well plate) was prepared. • 4. A volume of CellTiter-Glo® Reagent equal to the volume of ATP standard present in each well was added. • 5. Contents were mixed for 2 minutes on an orbital shaker. • 6. The plate was allowed to incubate at room temperature for 10 minutes to stabilize the luminescent signal. • 7. Luminescence was recorded.

[2] = target: T1, TNK1 (Homo sapiens, UniProt Q13470); assay: TNK1 NanoBRET target engagement assay (HEK293); format: cell-based; design: host or cells: HEK293; settings: HEK293 cells, 2 hours; read-out: NanoBRET TE Assay (HEK293) IC50
T1 sequence (Q13470 1-666): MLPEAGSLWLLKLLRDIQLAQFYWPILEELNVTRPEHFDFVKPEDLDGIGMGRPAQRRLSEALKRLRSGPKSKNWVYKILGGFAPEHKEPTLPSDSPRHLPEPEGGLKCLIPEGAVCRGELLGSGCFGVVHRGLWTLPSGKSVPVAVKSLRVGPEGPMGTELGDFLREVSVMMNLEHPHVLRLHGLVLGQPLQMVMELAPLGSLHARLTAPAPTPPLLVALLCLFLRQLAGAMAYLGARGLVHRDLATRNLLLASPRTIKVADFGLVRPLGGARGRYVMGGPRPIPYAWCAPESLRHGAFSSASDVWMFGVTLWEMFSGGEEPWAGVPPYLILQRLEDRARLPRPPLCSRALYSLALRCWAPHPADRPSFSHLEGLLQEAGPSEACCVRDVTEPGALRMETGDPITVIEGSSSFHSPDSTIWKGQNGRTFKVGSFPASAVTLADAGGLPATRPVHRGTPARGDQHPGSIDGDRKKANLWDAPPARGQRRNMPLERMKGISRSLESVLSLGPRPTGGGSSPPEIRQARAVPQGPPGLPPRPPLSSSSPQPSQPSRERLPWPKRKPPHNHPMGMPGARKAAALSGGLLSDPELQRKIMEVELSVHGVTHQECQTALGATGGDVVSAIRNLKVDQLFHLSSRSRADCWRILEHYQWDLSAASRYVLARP
Source text: The NanoBRET target engagement (TE) assay (Promega, Madison, Wis.) enables the interrogation of the displacement of a tracer compound in the active site of a recombinant kinase by a test compound in the intracellular setting. The assay enables simultaneous testing of permeability, solubility, and kinase inhibition, and tests the specific interaction of test agents with a kinase of interest, here, TNK1. The assay is based on the principle of bioluminescence resonance energy transfer (BRET). In the assay, a plasmid-encoded, luciferase-tagged form of TNK1 is transfected into cells. A tracer compound is tagged with a fluorophore that fluoresces when bound to the TNK1 protein. Readout is luminescence and fluorescence. Test compounds show activity by displacing the tracer, thus disrupting BRET.
Methods: The TNK1 NanoBRET TE assays were performed according to the manufacturer's protocol. Briefly, Nanoluc-TNK1 Fusion Vector (Promega, Madison, Wis., Cat. No. NV2181) was transfected into HEK293 cells in bulk (8×10^6 cells in a T175 flask). Up to 30 hours post-transfection, cells were harvested by trypsinization, resuspended at a concentration of 2×10^5 cells/mL, and seeded in 96-well plates at 85 μL/well. A test compound and the K5 tracer were added to each well, and the cells were incubated for 2 hours. Luminescence ([…]) and fluorescence ([…]) were measured to determine a BRET ratio. IC50 values were determined from the BRET ratios using the Graphpad Prism software (GraphPad Software, San Diego, Calif.).

[3] = tested on: L540 cells; assay: In-vitro cell viability assay (CellTiter-Glo), L540; format: cell-based; settings: Homo sapiens, L-540
Experimental: as §1, §2, §3, §4

[4] = tested on: pSTAT5 in L540 xenograft tumors; assay: pSTAT5 assay in L540 xenograft tumors (ELISA); format: in vivo, mouse; settings: 10 mg/kg and 25 mg/kg treated arms
Experimental: Effects of test compounds on phosphorylation of signal transducer and activator of transcription 5 (STAT5) were determined in L540 xenograft tumors.
Methods: Each treatment group included 10 NOD SCID mice. Each mouse was injected with 1×10^7 L540 cells (86% viable at the time of injection), and treated with a single dose of test compound (10 mg/kg or 25 mg/kg) 10 days post L540 cell injection. Tumors were collected 24 hours post treatment, snap frozen, and kept at −80° C. for 24 hours post-harvest. Phosphorylated STAT5 (pSTAT5) levels were measured in the lysates using the STAT5 AB pY694/699 ELISA Kit (Abcam, Cambridge, UK, ab176656). The standard Abcam ELISA protocol was followed, except for 10× more protein than what Abcam recommends was used.

| Compound | IC50 [1] | IC50 [2] | IC50 [3] | dose dependence of p-STAT5 decrease [4] |
| --- | --- | --- | --- | --- |
| COc1cc(N2CCN(C)CC2)c(Cl)cc1Nc1ncc(Cl)c(Nc2cccnc2N2CCCC2=O)n1 [Example No. 13, 1-(3-((5-chloro-2-((5-chloro-2-methoxy-4-(4-methylpiperazin-1-yl)phenyl)amino)pyrimidin-4-yl)amino)pyridin-2-yl)pyrrolidin-2-one] | 1.5 to 6 µM | < 150 nM | < 0.5 µM |  |
| CN1CCN(c2c(Cl)cc(Nc3ncc(Cl)c(Nc4cccnc4N4CCCC4=O)n3)c3ccccc23)CC1 [Example No. 18, 1-(3-((5-chloro-2-((3-chloro-4-(4-methylpiperazin-1-yl)naphthalen-1-yl)amino)pyrimidin-4-yl)amino)pyridin-2-yl)pyrrolidin-2-one] | ≥ 6 µM | < 150 nM | < 0.5 µM |  |
| COc1cc(N2CCN(C)CC2)c(Cl)cc1Nc1ncc(Cl)c(Nc2cccnc2N2CCNC2=O)n1 [Example No. 21, 1-(3-((5-chloro-2-((5-chloro-2-methoxy-4-(4-methylpiperazin-1-yl)phenyl)amino)pyrimidin-4-yl)amino)pyridin-2-yl)imidazolidin-2-one] | ≥ 6 µM | < 150 nM | 1.5 to 6 µM |  |
| CN1CCN(c2ccc(Nc3ncc(Cl)c(Nc4cccnc4N4CCCC4=O)n3)cc2)CC1 [compound 1, 1-(3-((5-chloro-2-((4-(4-methylpiperazin-1-yl)phenyl)amino)pyrimidin-4-yl)amino)pyridin-2-yl)pyrrolidin-2-one] | < 0.5 µM | < 150 nM | 0.5 to 1.5 µM |  |
| COc1cc(N2CCN(C)CC2)ccc1Nc1ncc(Cl)c(Nc2cccnc2N2CCCC2=O)n1 [compound 2, 1-(3-((5-chloro-2-((2-methoxy-4-(4-methylpiperazin-1-yl)phenyl)amino)pyrimidin-4-yl)amino)pyridin-2-yl)pyrrolidin-2-one] | 1.5 to 6 µM | < 150 nM | 0.5 to 1.5 µM |  |
| CCOc1cc(N2CCN(C)CC2)ccc1Nc1ncc(Cl)c(Nc2cccnc2N(C)C)n1 [compound 3, 5-chloro-N^4-(2-(dimethylamino)pyridin-3-yl)-N^2-(2-ethoxy-4-(4-methylpiperazin-1-yl)phenyl)pyrimidine-2,4-diamine] |  | > 1000 nM | ≥ 6 µM |  |
| CC(C)Oc1cc(N2CCN(C)CC2)ccc1Nc1ncc(Cl)c(Nc2cccnc2N(C)C)n1 [compound 4, 5-chloro-N^4-(2-(dimethylamino)pyridin-3-yl)-N^2-(2-isopropoxy-4-(4-methylpiperazin-1-yl)phenyl)pyrimidine-2,4-diamine] | 1.5 to 6 µM | > 1000 nM | ≥ 6 µM |  |
| CN1CCN(c2ccc(Nc3ncc(Cl)c(Nc4cccnc4N(C)C)n3)cc2)CC1 [compound 5, 5-chloro-N^4-(2-(dimethylamino)pyridin-3-yl)-N^2-(4-(4-methylpiperazin-1-yl)phenyl)pyrimidine-2,4-diamine] | 1.5 to 6 µM | 150 to 1000 nM | 0.5 to 1.5 µM |  |
| COc1cc(N2CCN(C)CC2)c(C)cc1Nc1ncc(Cl)c(Nc2cccnc2N2CCNC2=O)n1 [compound 9, 1-(3-((5-chloro-2-((2-methoxy-5-methyl-4-(4-methylpiperazin-1-yl)phenyl)amino)pyrimidin-4-yl)amino)pyridin-2-yl)imidazolidin-2-one] | ≥ 6 µM | < 150 nM | < 0.5 µM | showed some dose dependence |
| COc1cc(N2CCN(C)CC2)c(C)cc1Nc1ncc(Br)c(Nc2cccnc2N(C)C)n1 [compound 10, 5-bromo-N^4-(2-(dimethylamino)pyridin-3-yl)-N^2-(2-methoxy-5-methyl-4-(4-methylpiperazin-1-yl)phenyl)pyrimidine-2,4-diamine] | ≥ 6 µM | < 150 nM | < 0.5 µM | showed some dose dependence |
